From patent US7067538B2, “MCP-1 receptor antagonists and methods of use thereof” (Warner-Lambert Company, LLC, priority 2002, dated 2006)
Where two headings read alike, the source gives them in different places.

Key:
[1] = system: MCP-1 response in THP-1 cells; experiment: Calcium flux in THP-1 cells stimulated with human MCP-1 (FLIPR); type: cell-based; conditions: read-out: Calcium Flux IC50
Description: Compounds of were evaluated for their effect on calcium flux using methodology known in the art, e.g., Neote et al., Cell 1993, 72:415–425. Briefly, THP-1 cells were incubated with the fluorescence dye FLUO-4 for 1 hour, the cells were washed after this loading period, resuspended in HANKs buffer, and loaded into a 384-well plate. The cells were then incubated in the presence of a compound of Example 1–12, 14, 18, 22–23, 27–28, 30, or [bis-(4-chloro-phenyl)-methanesulfonyl]-acetic acid methyl ester. After a 30-minute incubation period, the cells were stimulated with 33 nM human MCP-1 and the calcium flux response recorded and quantified with a FLIPR^384® (384-well Fluorometric Imaging Plate Reader) ([…], Sunnyvale, Calif.). The IC50's (μM) of the inhibition of the maximal MCP-1 response are set out in Table 1.

[2] = target: T1, MCP-1 receptor (300-19 cell membranes) (Homo sapiens, UniProt P41597); experiment: Inhibition of binding of 125I-MCP-1 to 300-19 cell membranes
T1 construct: host or cells: 300-19 cells (membrane preparation)
T1 sequence (P41597 whole entry): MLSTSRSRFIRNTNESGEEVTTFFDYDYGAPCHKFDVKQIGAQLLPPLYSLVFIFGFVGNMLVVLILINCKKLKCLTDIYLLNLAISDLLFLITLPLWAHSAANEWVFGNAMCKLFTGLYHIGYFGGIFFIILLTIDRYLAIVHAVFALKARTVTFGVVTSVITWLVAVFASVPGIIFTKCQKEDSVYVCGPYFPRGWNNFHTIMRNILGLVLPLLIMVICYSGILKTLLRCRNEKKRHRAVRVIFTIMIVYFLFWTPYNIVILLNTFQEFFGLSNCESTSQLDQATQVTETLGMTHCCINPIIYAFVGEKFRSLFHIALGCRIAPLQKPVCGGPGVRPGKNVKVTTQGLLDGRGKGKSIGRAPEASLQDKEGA
Description: Compounds were also assayed for their ability to inhibit the binding of radiolabeled MCP-1 to cell membranes. The materials and methods are set out below.
Membrane Preparation. 300-19 cells were harvested by centrifugation and washed with PBS (Dulbecco's phosphate-buffered saline w/o Ca and Mg). Cells were frozen at −80° C. overnight then resuspensed in ice cold lysis buffer (5 mM HEPES, 2 mM EDTA, 10 μg/mL of leupeptin, aprotinin, and chymostatin, and 200 μg/mL PMSF). The cell suspension was centrifuged at 1,000 rpm for 10 minutes and the supernatant was transferred and centrifuged at 14,000 rpm for 45 minutes at 4° C. then discarded. The resulting pellet was resuspended in stock buffer (10 mM HEPES, 300 mM sucrose, 20 μg/mL of leupeptin, aprotinin, and chymostatin, and 200 μg/mL PMSF), aliquoted, and frozen at −80° C. until use. Typical binding assays used 1.0 μg/well protein.
Prepared membranes were resuspended in binding buffer (50 mM Tris, 10 mM MgCl2, 1 mM EDTA pH 7.4) at 10 μg/mL protein. Membranes (1.0 μg/well) were incubated with ^125I-MCP-1 (0.15 nM) in the absence or presence of unlabeled chemokine (465 nM) or a compound of Examples 1–11, 14, 16, 19, 22, 27–30, 33–34, or [bis-(4-chloro-phenyl)-methanesulfonyl]-acetic acid methyl ester (0.001 μM–40 μM) for 3 hours at room temperature in a 96-well plate (total volume 250 μL). The reaction was terminated by filtration using a 96-well plate harvester (Packard Filtermate 196 Harvester). Filters (Packard GF/C) were prewet with 0.3% PEI containing 0.5% BSA and washed 5 times with wash buffer (DPBS, 0.3 MnCl2, and 0.25% BSA) prior to reaction termination. After terminating the reaction, filters were washed 6 times with wash buffer, and allowed to dry overnight. Scintillation fluid (Packard's Micro Scint 20) was added to each well and radioactivity bound was determined by liquid scintillation spectrometry. Nonspecific binding was determined in the presence of 465 nM unlabeled MCP-1. The IC50's (μM) of the inhibition of the binding of the iodinated MCP-1 are set out in Table 2.

[3] = Pharmacokinetics in rats after intravenous infusion and oral gavage; type: in vivo
Description: The compound of Example 4, 3-[Bis-(4-chloro-phenyl)-methanesulfonyl]-1,1,1-trifluoro-propan-2-one, was administered to rats via a 5-minute intravenous infusion at 0.175 mg/mL (solution in 5% DMA/95% Tris base (50 mM in water)) and oral gavage at 0.35 mg/mL (suspension in 5% (w/v) PEG 200/95% (w/v) methylcellulose (0.5%)). Following intravenous administration of a 0.5 mg/kg dose to rats, the systemic clearance was about 0.06 mL/min/kg and the volume of distribution was about 0.2 L/kg. […] Following a 1 mg/kg oral dose, the compound of Example 4 was absorbed in rats with mean peak plasma levels of 6 μg/mL occurring approximately 2.5 hours after dosing. Based on the ratio of the dose-normalized area under the plasma concentration-time curve from 0 to 96 hour after oral and intravenous doses, the absolute oral bioavailability averaged about 100%. […]

[4] = Plasma stability in rat plasma and acidified rat plasma (LC/MS); type: in vitro ADME; conditions: 1 μg/mL, 1 hour at room temperature or 37° C.
Description: Plasma stability studies were conducted on (Di-p-tolyl-methanesulfonyl)-acetic acid methyl ester and [bis-(4-chloro-phenyl)-methanesulfonyl]-acetic acid methyl ester. Briefly, these compounds (at a final concentration of 1 μg/mL) were separately inclubated in rat plasma and acidified rat plasma for 1 hour at room temperature or 37° C.

[5] = 0.5 h, THP-1 cells, 30-minute incubation, stimulated with 33 nM human MCP-1, inhibition of the maximal MCP-1 response
[6] = 300-19 cell membranes 1.0 μg/well, 125I-MCP-1 0.15 nM, 3 hours at room temperature, read-out: IC50 of the inhibition of the binding of the iodinated MCP-1

Structure (SMILES): COC(=O)CC(=O)CS(=O)(=O)C(c1ccc(Cl)cc1)c1ccc(Cl)cc1 [Example 22, 4-[Bis-(4-chloro-phenyl)-methanesulfonyl]-3-oxo-butyric acid methyl ester]
- IC50 [1, 5]: 2470 nM
- IC50 [2, 6]: 1270 nM
- melting point: 76 to 78 °C

Structure (SMILES): O=C(CS(=O)(=O)C(c1ccc(Cl)cc1)c1ccc(Cl)cc1)C(F)F [Example 8, 3-[Bis-(4-chloro-phenyl)-methanesulfonyl]-1,1-difluoro-propan-2-one]
- IC50 [1, 5]: 108 nM
- IC50 [2, 6]: 88 nM
- bioavailability ([3]; rat, in vivo): ~43%
- half-life ([3]; rat, in vivo): 7 h
- Vd ([3]; rat, in vivo, iv, 1 mg/kg): 0.28 L/kg
- clearance ([3]; rat, in vivo, iv, 1 mg/kg): 0.75 mL/min/kg
- mean peak plasma levels ([3]; rat, in vivo, po, 5 mg/kg): about 7 μg/mL
- time of peak plasma levels after dosing ([3]; rat, in vivo, po, 5 mg/kg): 0.5 to 1 h

Structure (SMILES): O=C(Cc1ccccc1)CS(=O)(=O)C(c1ccc(Cl)cc1)c1ccc(Cl)cc1 [Example 9, 1-[Bis-(4-chloro-phenyl)-methanesulfonyl]-3-phenyl-propan-2-one]
- IC50 [1, 5]: 2900 nM
- IC50 [2, 6]: 6300 nM
- melting point: 54 to 56 °C

Structure (SMILES): O=C(CS(=O)(=O)C(c1ccc(Cl)cc1)c1ccc(Cl)cc1)c1ccco1 [Example 5, 2-[Bis-(4-chloro-phenyl)-methanesulfonyl]-1-furan-2-yl-ethanone]
- IC50 [1, 5]: 7250 nM
- IC50 [2, 6]: 2550 nM
- melting point: 138 to 139 °C

Structure (SMILES): COC(=O)CS(=O)(=O)C(c1ccc(C)cc1)c1ccc(C)cc1 [(Di-p-tolyl-methanesulfonyl)-acetic acid methyl ester, reference compound]
- plasma concentrations after intravenous or oral administration ([3]; rats, 1 mg/kg intravenous infusion or 5 mg/kg oral gavage, LC/MS): below the lower limit of quantitation
- compound remaining after incubation in plasma [4]: below the lower limit of quantitation

Structure (SMILES): COC(=O)CS(=O)(=O)C(c1ccc(Cl)cc1)c1ccc(Cl)cc1 [[Bis-(4-chloro-phenyl)-methanesulfonyl]-acetic acid methyl ester, reference compound]
- IC50 ([1]; Homo sapiens, THP-1, 0.5 h): 150 nM
- IC50 [2]: 7320 nM
- compound remaining after incubation in plasma [4]: below the lower limit of quantitation

Structure (SMILES): O=C(CF)CS(=O)(=O)C(c1ccc(Cl)cc1)c1ccc(Cl)cc1 [Example 7, 3-[Bis-(4-chloro-phenyl)-methanesulfonyl]-1-fluoro-propan-2-one]
- IC50 [1, 5]: 423 nM
- IC50 [2, 6]: 101 nM
- bioavailability ([3]; rat, in vivo): < 10%
- half-life ([3]; rat, in vivo): 1.5 h
- decrease in concentrations within 2 hours after dosing ([3]; rat, in vivo, iv, 1 mg/kg): > 100 fold
- mean peak plasma levels ([3]; rat, in vivo, po, 5 mg/kg): 359 ng/mL
- time for which plasma concentrations were measurable after dosing ([3]; rat, in vivo, po, 5 mg/kg): 4 h
- time of peak plasma levels after dosing ([3]; rat, in vivo, po, 5 mg/kg): 0.25 h
- melting point: 55 to 58 °C

Structure (SMILES): COc1ccc(OCC(=O)CS(=O)(=O)C(c2ccc(Cl)cc2)c2ccc(Cl)cc2)cc1 [Example 11, 1-[Bis-(4-chloro-phenyl)-methanesulfonyl]-3-(4-methoxy-phenoxy)-propan-2-one]
- IC50 [1, 5]: 4750 nM
- IC50 [2, 6]: 3400 nM
- melting point: 116 to 117 °C

Structure (SMILES): O=C(CS(=O)(=O)C(c1ccc(Cl)cc1)c1ccc(Cl)cc1)C(F)(F)F [Example 4, 3-[Bis-(4-chloro-phenyl)-methanesulfonyl]-1,1,1-trifluoro-propan-2-one]
- IC50 [1, 5]: 495 nM
- IC50 [2, 6]: 175 nM
- bioavailability ([3]; rat, in vivo): ~100%
- half-life ([3]; rat, in vivo): ~47 h
- Vd ([3]; rat, in vivo, iv, 0.5 mg/kg): ~0.2 L/kg
- clearance ([3]; rat, in vivo, iv, 0.5 mg/kg): ~0.06 mL/min/kg
- mean peak plasma levels ([3]; rat, in vivo, po, 1 mg/kg): 6000 ng/mL
- time of peak plasma levels after dosing ([3]; rat, in vivo, po, 1 mg/kg): approximately 2.5 hours
- melting point: 60 to 62 °C

Structure (SMILES): O=S(=O)(CC(O)(O)C(F)(F)F)C(c1ccc(F)cc1)c1ccc(F)cc1 [Example 28, 3-[Bis(4-fluorophenyl)methanesulfonyl]-1,1,1-trifluoropropane-2,2-diol]
- IC50 ([1]; Homo sapiens, THP-1, 0.5 h): 417 nM
- IC50 [2]: 210 nM

Structure (SMILES): CC(=O)CS(=O)(=O)C(c1ccc(Cl)cc1)c1ccc(Cl)cc1 [Example 1, 1-[Bis-(4-chloro-phenyl)-methanesulfonyl]-propan-2-one]
- IC50 ([1]; Homo sapiens, THP-1, 0.5 h): 2200 nM
- IC50 [2]: 1150 nM
- melting point: 114 to 115 °C

Structure (SMILES): O=C(COc1ccccc1)CS(=O)(=O)C(c1ccc(Cl)cc1)c1ccc(Cl)cc1 [Example 10, 1-[Bis-(4-chloro-phenyl)-methanesulfonyl]-3-phenoxy-propan-2-one]
- IC50 [1, 5]: 984 nM
- IC50 [2, 6]: 3450 nM
- melting point: 110 to 112 °C

Structure (SMILES): O=C(CBr)CS(=O)(=O)C(c1ccc(Cl)cc1)c1ccc(Cl)cc1 [Example 3, 1-[Bis-(4-chloro-phenyl)-methanesulfonyl]-3-bromo-propan-2-one]
- IC50 [1, 5]: 1120 nM
- IC50 [2, 6]: 165 nM
- melting point: 122 to 123 °C

Structure (SMILES): O=C(CS(=O)(=O)Cc1ccccc1)CS(=O)(=O)C(c1ccc(Cl)cc1)c1ccc(Cl)cc1 [Example 27, 1-[Bis-(4-chloro-phenyl)-methanesulfonyl]-3-phenylmethanesulfonyl-propan-2-one]
- IC50 [1, 5]: 6520 nM
- IC50 [2, 6]: 2700 nM
- melting point: 72 to 90 °C

Structure (SMILES): COCC(=O)CS(=O)(=O)C(c1ccc(Cl)cc1)c1ccc(Cl)cc1 [Example 14, 1-[Bis-(4-chloro-phenyl)-methanesulfonyl]-3-methoxy-propan-2-one]
- IC50 ([1]; Homo sapiens, THP-1, 0.5 h): 3900 nM
- IC50 [2]: 1350 nM
- melting point: 124 to 125 °C
